Experimental data taken from patent US20180110754A1, “CENICRIVIROC FOR THE TREATMENT OF FIBROSIS” (Tobira Therapeutics, Inc., priority 2015, published 2018).

Legend:
[1] = tested on: thioacetamide (TAA)-induced hepatic fibrosis; assay: Rat model of thioacetamide-induced liver fibrosis and cirrhosis; type: in vivo, Sprague-Dawley rats; settings: for Reduction of fibrosis (collagen morphometry): weeks 0-8
Experimental: Fibrosis was induced in male Sprague-Dawley rats by intraperitoneal administration of TAA 150 mg/kg 3 times/week for 8 weeks. […] Biochemical, gene expression and histologic evaluations of the liver were conducted.

[2] = Phase 1 studies in healthy volunteer subjects; type: in vivo, human; settings: single doses up to 800 mg, multiple daily doses up to 200 mg for 10 days
Source text: The frequency and magnitude of transaminase elevations observed across these studies was consistent with the pattern described for Phase 1 studies in scientific literature. […] In both studies and at all doses CVC presented a favorable adverse event profile. […] No clinically relevant changes in ECG parameters or changes for any vital sign parameters were observed during the 48-week treatment period. No apparent dose or exposure relationship for adverse events, laboratory abnormalities (including CPK, ALT, AST and bilirubin elevations) or dose-limiting toxicities were observed.

CCR2 = target: T1, CCR2 (Homo sapiens, UniProt P41597); assay: MCP-1-induced CCR2 internalization / CCR2 receptor occupancy on monocytes (flow cytometry); type: cell-based
T1 construct: endogenous in cells; host or cells: monocytes within PBMCs from HIV+ and HIV- subjects
T1 sequence (P41597 1-360 isoform P41597-2): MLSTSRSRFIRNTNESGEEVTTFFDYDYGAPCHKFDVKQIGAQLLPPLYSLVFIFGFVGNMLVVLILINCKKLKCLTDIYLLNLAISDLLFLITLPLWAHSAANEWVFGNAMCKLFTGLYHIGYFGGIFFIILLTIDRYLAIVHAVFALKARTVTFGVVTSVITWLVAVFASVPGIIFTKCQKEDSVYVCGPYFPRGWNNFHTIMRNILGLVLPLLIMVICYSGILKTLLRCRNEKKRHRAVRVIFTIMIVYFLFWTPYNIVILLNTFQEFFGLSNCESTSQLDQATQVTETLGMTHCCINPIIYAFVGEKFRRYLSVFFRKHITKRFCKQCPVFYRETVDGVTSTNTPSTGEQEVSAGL
Experimental: The capacity of each drug to inhibit CCR5 or CCR2 internalization was evaluated. Cell-surface expression of CCR5 and CCR2 was assessed by flow cytometry, and fluorescence values were converted into molecules of equivalent soluble fluorescence (MESF).

CCR4 = CCR4 (Homo sapiens, UniProt P51679); assay: Inhibition of ligand binding to CCR4
[3] = Study 202: treatment-emergent laboratory abnormalities (DAIDS grades; CPK, ALT, AST, bilirubin); type: in vivo
Source text: The number of subjects with graded treatment-emergent laboratory abnormalities in selected liver parameters of interest is shown in Table 34. No Grade 4 ALT or AST elevations were observed. Except for one Grade 3 AST elevation, all ALT and AST elevations were Grade 1 or Grade 2. […] All abnormalities in bilirubin were Grade 1 or Grade 2. […]

[4] = All CVC (N = 115), EFV (N = 28)
[5] = All CVC (N = 115), EFV (N = 28), through Week 48
[6] = CVC 100 mg (N = 58), through Week 48

Sequence of CCR4 (P51679 whole entry): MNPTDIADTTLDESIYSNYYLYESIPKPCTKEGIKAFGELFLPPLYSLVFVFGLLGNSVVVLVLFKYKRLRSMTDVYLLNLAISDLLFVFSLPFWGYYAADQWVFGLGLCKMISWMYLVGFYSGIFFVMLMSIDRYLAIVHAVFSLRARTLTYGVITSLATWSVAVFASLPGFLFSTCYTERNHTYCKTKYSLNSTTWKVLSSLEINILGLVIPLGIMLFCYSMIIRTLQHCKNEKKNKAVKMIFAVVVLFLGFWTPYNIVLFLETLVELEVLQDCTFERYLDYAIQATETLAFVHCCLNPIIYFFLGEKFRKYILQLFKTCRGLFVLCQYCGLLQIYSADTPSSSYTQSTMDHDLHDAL

CCCCOCCOc1ccc(-c2ccc3c(c2)/C=C(/C(=O)Nc2ccc([S@@+]([O-])Cc4cncn4CCC)cc2)CCCN3CC(C)C)cc1 [CVC, (S)-8-[4-(2-Butoxyethoxy)phenyl]-1-isobutyl-N-(4-{[(1-propyl-1H-imidazol-5-yl)methyl]sulfinyl}phenyl)-1,2,3,4-tetrahydro-1-benzazocine-5-carboxamide]
Reduction of collagen type 1 protein levels ([1]; Group 1a: 30 mg/kg/day): 30%
Reduction of α-SMA ([1]; Group 1a: 30 mg/kg/day): 17%
Reduction of fibrosis (collagen morphometry) ([1]; Group 1a: 30 mg/kg/day concurrently with TAA): 49%
Reduction of collagen type 1 protein levels ([1]; Group 1b: 100 mg/kg/day): 12%
Reduction of α-SMA ([1]; Group 1b: 100 mg/kg/day): 22%
Reduction of fibrosis (collagen morphometry) ([1]; Group 1b: 100 mg/kg/day concurrently with TAA): 38%
Reduction in collagen ([1]; Group 2a: 30 mg/kg/day, weeks 4-8 (emerging fibrosis)): 36%
Effect on fibrogenic gene expression or fibrosis ([1]; Group 3: weeks 8-12, cirrhosis present): no significant effect
Tolerability [2]: generally well tolerated
Concentration at which saturation of monocyte CCR2 was reached (CCR2): 6 nM
Concentration required to reach >80% CCR2 receptor occupancy (average) (CCR2): 1.8 nM
receptor occupancy at 0.006 µM (CCR2; at 6 nM): ~98%
CCR2 cell-surface expression (CCR2; in the absence of MCP-1): induced CCR2 internalization and decreased cell-surface expression on monocytes
Inhibition of ligand binding to CCR4 (CCR4): only weakly inhibited
Any graded (Grade 1-4) treatment-emergent laboratory abnormality, n subjects [3, 4]: 106
Laboratory abnormality, worst Grade 1, n subjects [3, 4]: 37
Laboratory abnormality, worst Grade 2, n subjects [3, 4]: 50
Laboratory abnormality, worst Grade 3 (Any Grade 3 abnormality), n subjects [3, 4]: 13
Laboratory abnormality, worst Grade 4 (Any Grade 4 abnormality), n subjects [3, 4]: 6
ALT, worst Grade 1, n subjects [3, 5]: 10
ALT, worst Grade 2, n subjects [3, 5]: 5
ALT, worst Grade 3, n subjects [3, 5]: 0
ALT, worst Grade 4, n subjects [3, 5]: 0
AST, worst Grade 1, n subjects [3, 5]: 14
AST, worst Grade 2, n subjects [3, 5]: 6
AST, worst Grade 3, n subjects [3, 5]: 1
AST, worst Grade 4, n subjects [3, 5]: 0
Alanine aminotransferase (ALT) abnormality, any grade, n subjects [3, 5]: 15
Any Grade 3 or Grade 4 laboratory abnormality, n subjects [3, 5]: 19
Aspartate aminotransferase (AST) abnormality, any grade, n subjects [3, 5]: 21
Aspartate aminotransferase (AST) increased (Grade 3 or 4), n subjects [3, 5]: 1
Bilirubin abnormality, any grade, n subjects [3, 5]: 7
Bilirubin, worst Grade 1, n subjects [3, 5]: 3
Bilirubin, worst Grade 2, n subjects [3, 5]: 4
Bilirubin, worst Grade 3, n subjects [3, 5]: 0
Bilirubin, worst Grade 4, n subjects [3, 5]: 0
CPK increased, worst Grade 3, n subjects [3, 5]: 8
CPK increased, worst Grade 4, n subjects [3, 5]: 4
Creatine phosphokinase (CPK) increased (Grade 3 or 4), n subjects [3, 5]: 12
Fibrinogen decreased (Grade 3 or 4), n subjects [3, 5]: 2
Fibrinogen decreased, worst Grade 3, n subjects [3, 5]: 2
Fibrinogen decreased, worst Grade 4, n subjects [3, 5]: 0
Hemoglobin decreased (Grade 3 or 4), n subjects [3, 5]: 1
Hemoglobin decreased, worst Grade 3, n subjects [3, 5]: 0
Hemoglobin decreased, worst Grade 4, n subjects [3, 5]: 1
Neutrophils decreased (Grade 3 or 4), n subjects [3, 5]: 2
Neutrophils decreased, worst Grade 3, n subjects [3, 5]: 2
Neutrophils decreased, worst Grade 4, n subjects [3, 5]: 0
Phosphate decreased (Grade 3 or 4), n subjects [3, 5]: 4
Phosphate decreased, worst Grade 3, n subjects [3, 5]: 4
Phosphate decreased, worst Grade 4, n subjects [3, 5]: 0
Prothrombin time/INR increased, worst Grade 3, n subjects [3, 5]: 0
Prothrombin time/INR increased, worst Grade 4, n subjects [3, 5]: 1
Subjects with Grade 3 or 4 increases in CPK ([3]; CVC 100 mg): 3 subjects
Any graded (Grade 1-4) treatment-emergent laboratory abnormality, n subjects ([3]; CVC 100 mg (N = 58)): 51 (88%)
Laboratory abnormality, worst Grade 1, n subjects ([3]; CVC 100 mg (N = 58)): 21 (36%)
Laboratory abnormality, worst Grade 2, n subjects ([3]; CVC 100 mg (N = 58)): 23 (40%)
ALT, worst Grade 1, n subjects [3, 6]: 4
ALT, worst Grade 2, n subjects [3, 6]: 3
ALT, worst Grade 3, n subjects [3, 6]: 0
ALT, worst Grade 4, n subjects [3, 6]: 0
AST, worst Grade 1, n subjects [3, 6]: 8
AST, worst Grade 2, n subjects [3, 6]: 2
AST, worst Grade 3, n subjects [3, 6]: 1
AST, worst Grade 4, n subjects [3, 6]: 0
